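Assay format: 96-well plates, 48-hour exposure. The concentration for 50% growth inhibition is given as GI50.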 Calls of active or inactive are those of the source. Cut-off read from the data, not from the text of the source: active = GI50 up to about 1.1 µM and inactive = higher.
Columns and labels:
Experiment in all cases: inhibition of tumour cell growth, NCI panel, 48 h
HL-60 = test system: HL-60
SF-268 = test system: SF-268
HCC 2998 = test system: HCC 2998
UO-31 = test system: UO-31
OVCAR-8 = test system: OVCAR-8
SK-MEL-2 = test system: SK-MEL-2
A549 = test system: A549
KM12 = test system: KM12
NCI-H23 = test system: NCI-H23
A498 = test system: A498
NCI-H226 = test system: NCI-H226
SF-539 = test system: SF-539
SW-620 = test system: SW-620
UACC-62 = test system: UACC-62
COLO 205 = test system: COLO 205
HOP-92 = test system: HOP-92

Measured: GI50

O=C1C[C@@H]2[C@@H](CCC23CC3)N1
inactive: HL-60 > 100 µM | SF-268 > 100 µM | HCC 2998 > 100 µM | UO-31 > 100 µM | OVCAR-8 > 100 µM | SK-MEL-2 > 100 µM | A549 > 100 µM | KM12 > 100 µM | NCI-H23 > 100 µM | A498 > 100 µM | NCI-H226 > 100 µM | SF-539 > 100 µM | SW-620 > 100 µM | UACC-62 > 100 µM | COLO 205 > 100 µM

CSC(=S)c1ccc(C(=S)SC)cc1
inactive: HL-60 > 100 µM | SF-268 > 100 µM | HCC 2998 > 100 µM | UO-31 > 100 µM | HOP-92 > 100 µM | OVCAR-8 > 100 µM | A549 > 100 µM | KM12 > 100 µM | NCI-H23 > 100 µM | A498 > 100 µM | NCI-H226 > 100 µM | SF-539 > 100 µM | SW-620 > 100 µM | UACC-62 > 100 µM | COLO 205 > 100 µM

O=C(O)CCC(N/C=C1/N=C(c2ccccc2)OC1=O)C(=O)O (centres undefined)
inactive: HL-60 10 µM | SF-268 > 100 µM | HCC 2998 > 100 µM | UO-31 > 100 µM | OVCAR-8 > 100 µM | SK-MEL-2 > 100 µM | A549 > 100 µM | KM12 > 100 µM | NCI-H23 > 100 µM | A498 > 100 µM | NCI-H226 > 100 µM | SF-539 > 100 µM | SW-620 > 100 µM | UACC-62 > 100 µM | COLO 205 > 100 µM

CC(=O)c1sc(-c2nc(C)c(C(=O)/C=C\c3ccc(/C=C\C(=O)c4sc(-c5nc(C)c(C(C)=O)s5)nc4C)cc3)s2)nc1C
inactive: HL-60 > 100 µM | SF-268 > 100 µM | HCC 2998 > 100 µM | UO-31 > 100 µM | OVCAR-8 > 100 µM | SK-MEL-2 > 100 µM | A549 > 100 µM | KM12 > 100 µM | NCI-H23 > 100 µM | NCI-H226 > 100 µM | SF-539 > 100 µM | SW-620 > 100 µM | UACC-62 85.9 µM | COLO 205 > 100 µM

O=C(NCC(O)CNC(=O)C(F)(F)F)C(F)(F)F
inactive: HL-60 > 100 µM | SF-268 > 100 µM | HCC 2998 > 100 µM | UO-31 > 100 µM | HOP-92 > 100 µM | OVCAR-8 > 100 µM | A549 > 100 µM | KM12 > 100 µM | NCI-H23 > 100 µM | A498 > 100 µM | NCI-H226 > 100 µM | SF-539 > 100 µM | SW-620 > 100 µM | UACC-62 > 100 µM | COLO 205 > 100 µM

CCCCCCCCCCC(=O)CC(=O)c1c(O)cccc1O
inactive: HL-60 16.3 µM | SF-268 41.1 µM | HCC 2998 27.8 µM | UO-31 29 µM | HOP-92 27.1 µM | OVCAR-8 35.7 µM | A549 32.4 µM | KM12 33 µM | NCI-H23 26.9 µM | A498 30.9 µM | NCI-H226 17.9 µM | SF-539 36.4 µM | SW-620 34.2 µM | UACC-62 41.9 µM | COLO 205 31 µM

CC(=O)OCC1(C)C(OC(C)=O)CCC2(C)C(CC(OC(C)=O)C3=CCOC3=O)C(O)(CO)CCC12 (centres undefined)
inactive: HL-60 61.5 µM | SF-268 > 100 µM | HCC 2998 > 100 µM | UO-31 > 100 µM | HOP-92 > 100 µM | OVCAR-8 > 100 µM | A549 > 100 µM | KM12 > 100 µM | NCI-H23 > 100 µM | A498 > 100 µM | NCI-H226 > 100 µM | SF-539 > 100 µM | SW-620 > 100 µM | UACC-62 > 100 µM | COLO 205 > 100 µM

Cc1nc2ccc(N)cc2nc1O
inactive: HL-60 > 100 µM | HCC 2998 > 100 µM | UO-31 > 100 µM | HOP-92 5.89 µM | OVCAR-8 > 100 µM | SK-MEL-2 > 100 µM | A549 > 100 µM | KM12 > 100 µM | A498 > 100 µM | SF-539 > 100 µM | SW-620 > 100 µM | UACC-62 > 100 µM | COLO 205 > 100 µM

COC(=O)C1(C)CCc2c(OC)ccc(OC)c2C1=O (centres undefined)
inactive: HL-60 > 100 µM | SF-268 > 100 µM | HCC 2998 > 100 µM | UO-31 76.2 µM | OVCAR-8 > 100 µM | SK-MEL-2 > 100 µM | A549 > 100 µM | KM12 > 100 µM | NCI-H23 > 100 µM | NCI-H226 > 100 µM | SF-539 > 100 µM | SW-620 > 100 µM | UACC-62 > 100 µM | COLO 205 > 100 µM

Cc1ccc(-c2cc(=O)c3cc(C)c(C)c(C(=O)O)c3o2)cc1[N+](=O)[O-]
inactive: SF-268 > 100 µM | UO-31 > 100 µM | OVCAR-8 > 100 µM | SK-MEL-2 > 100 µM | A549 > 100 µM | KM12 > 100 µM | NCI-H23 > 100 µM | NCI-H226 > 100 µM | SF-539 > 100 µM | SW-620 > 100 µM | UACC-62 > 100 µM | COLO 205 > 100 µM

[O-][S+]1c2ccccc2N=C(c2cccs2)CC1c1ccccc1O (centres undefined)
inactive: HL-60 > 100 µM | SF-268 > 100 µM | HCC 2998 96.6 µM | UO-31 > 100 µM | OVCAR-8 > 100 µM | SK-MEL-2 > 100 µM | A549 > 100 µM | KM12 93.5 µM | NCI-H23 67.9 µM | A498 25.4 µM | NCI-H226 > 100 µM | SF-539 > 100 µM | SW-620 > 100 µM | UACC-62 56.2 µM | COLO 205 > 100 µM

NC(=O)NC12CC3CC(CC(F)(C3)C1)C2
inactive: HL-60 > 100 µM | HCC 2998 > 100 µM | UO-31 > 100 µM | HOP-92 > 100 µM | OVCAR-8 > 100 µM | SK-MEL-2 > 100 µM | A549 > 100 µM | KM12 > 100 µM | NCI-H23 > 100 µM | A498 > 100 µM | SF-539 > 100 µM | SW-620 > 100 µM | UACC-62 > 100 µM | COLO 205 > 100 µM

COc1ccc(Cc2c(=O)[nH]nc3ccccc23)cc1
inactive: SF-268 > 100 µM | HCC 2998 > 100 µM | UO-31 43.8 µM | HOP-92 > 100 µM | OVCAR-8 90.6 µM | SK-MEL-2 > 100 µM | A549 43.6 µM | KM12 > 100 µM | NCI-H23 61 µM | A498 > 100 µM | NCI-H226 85.7 µM | SF-539 > 100 µM | SW-620 > 100 µM | UACC-62 > 100 µM | COLO 205 > 100 µM

COc1cccc2c1N[S@](=O)S2
inactive: HL-60 > 100 µM | SF-268 76 µM | UO-31 42 µM | HOP-92 > 100 µM | SK-MEL-2 > 100 µM | A549 > 100 µM | KM12 > 100 µM | NCI-H23 > 100 µM | NCI-H226 > 100 µM | SF-539 > 100 µM | SW-620 > 100 µM | UACC-62 38.6 µM
